Results taken from PMC3970910 (Biochemistry, 2013).

How the values were obtained:
human osteoclast = details: human osteoclasts in vitro; cited from earlier work
mouse osteoclast = details: mouse osteoclasts in vitro; cited from earlier work
GPR18 = details: cited from earlier work
untransfected U2OS cells = assay: ERK1/2 phosphorylation in untransfected U2OS cells; format: cell-based

Compound: C=C(C)[C@@H]1CCC(C)=C[C@H]1c1c(O)cc(CCCCC)cc1O [CBD, cannabidiol]
- effect on osteoclast polarization and resorption produced by GPR55 agonists O-1602 and LPI (human osteoclast): attenuating the effects
- effect on osteoclast polarization and resorption produced by GPR55 agonists O-1602 and LPI (mouse osteoclast): attenuating the effects
- activity at GPR18 (GPR18): low efficacy agonist

Compound: L-α-lysophosphatidylinositol [LPI]
- Induction of ERK1/2 phosphorylation in untransfected U2OS cells (untransfected U2OS cells): neither LPI nor any of the antagonist compounds induced ERK1/2 phosphorylation
